Data on 15 molecules can be found in PubChem BioAssay (NCI).

SMILES strings stand for the structures. Several values for one entry are separate records, joined by “and”; a condition that tells them apart may be missing. Identical values can stand only once.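 Cultured in 96-well plates, cells were exposed to test compound for 48 hours across five concentrations. GI50 marks 50% less growth. At the TGI there is no net growth.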

One test has as its system DU-145 prostate. Nature of the test: inhibition of tumour cell growth, NCI panel, 48 h.
Take `Nc1nc(OCc2ccccc2)c2[nH]cnc2n1`: the GI50 is 33.6 µM and 30.1 µM; the TGI stood at 266 µM.
In the case of `Fc1ccc(/C=N/n2c(-c3ccc(F)c(Cl)c3)nn(CNc3ccccc3C(F)(F)F)c2=S)cc1`, the GI50 is over 100 µM and the TGI was over 100 µM.
For the molecule `CN[C@@H](C)C(=O)N[C@H](C(=O)N1CCC[C@H]1C(=O)Nc1sc(-c2ncco2)nc1-c1ccccc1)C1CCCCC1`, the GI50 was over 95.8 µM and the TGI is over 100 µM.
Turning to `CC1=C2[C@@H](CC1)[C@]1(C)O[C@@](c3ccccc3)(C[C@H]1OC(=O)CO)[C@H]2OC(=O)/C=C/c1ccccc1`, the GI50 is 16.6 µM and the TGI was 34.5 µM.
As to `NC(=O)c1csc(C2OC(CO)C(O)C2O)n1` (stereo unspecified), the TGI was over 10000 µM.
Regarding `CCCN(CCS(C)(=O)=O)Cc1ccc(-c2ccc3ncnc(Nc4ccc(OCc5cccc(F)c5)c(Cl)c4)c3c2)o1`, the GI50 is over 22.4 µM and the TGI was over 25 µM.
On the same counts, the results for `CC(C)C[C@H](NC(=O)CNC(=O)c1cc(Cl)ccc1Cl)B1OC(=O)CC(CC(=O)O)(C(=O)O)O1` (stereo partly specified) are 0.0804 µM and 14.8 µM.
For `OCC12C3C4C5C3C1C5C42` (stereo unspecified), the TGI was over 100 µM.
For the molecule `CCCCCCCCCCCCCCCCCC[n+]1ccc2c(C)c3c(c(C)c2c1)c1cc(O)ccc1n3CC`, the GI50 is 1.87 µM and the TGI was determined as 5.64 µM.
For `CCc1ccc2c(c1)N(CCO)C1=C(C(=O)OC1)C2c1cccc(Br)c1` (stereo unspecified) the same measures were 0.658 µM and 11.3 µM.
For `O=c1[nH]c(=O)n(C2CC(O)C(COP(=O)(OCc3ccc([N+](=O)[O-])o3)N(CCCCCl)CC(O)CO)O2)cc1F` (stereo unspecified) the same measures were 0.176 µM and over 34.8 µM.
On the same counts, the results for `CC(C)NCCCn1c(Sc2cc3c(cc2I)OCO3)nc2c(N)ncnc21` are 0.0473 µM and over 100 µM.
As to `CN1C(=O)N(C)C2C1NN=c1s/c(=C\c3ccc(C(F)(F)F)cc3)c(=O)n12` (stereo unspecified), the GI50 is 2.96 µM and the TGI was over 100 µM.
On the same counts, the results for `N#Cc1c(N2CCOCC2)nc(=S)[nH]c1-c1ccco1` are 10.2 µM and over 100 µM.
For `C[C@@H]1CN(Cc2ccc(F)cc2)[C@@H](C)CN1C(=O)c1cc2c(C(=O)C(=O)N(C)C)cn(C)c2cc1Cl` the same measures were 18.8 µM and 53.1 µM.

The test system of a further test is RXF 393 renal. Briefly: inhibition of tumour cell growth, NCI panel, 48 h.
Turning to `Nc1nc(OCc2ccccc2)c2[nH]cnc2n1`, the GI50 was 14.4 µM and 22.1 µM; the TGI is 94.5 µM and 169 µM and 145 µM.
`Fc1ccc(/C=N/n2c(-c3ccc(F)c(Cl)c3)nn(CNc3ccccc3C(F)(F)F)c2=S)cc1`: the GI50 was 59.4 µM and the TGI is over 100 µM.
On the same counts, the results for `CN[C@@H](C)C(=O)N[C@H](C(=O)N1CCC[C@H]1C(=O)Nc1sc(-c2ncco2)nc1-c1ccccc1)C1CCCCC1` are 8.51 µM and 32.3 µM.
For `CC1=C2[C@@H](CC1)[C@]1(C)O[C@@](c3ccccc3)(C[C@H]1OC(=O)CO)[C@H]2OC(=O)/C=C/c1ccccc1` the same measures were 0.0388 µM and 1.31 µM.
`NC(=O)c1csc(C2OC(CO)C(O)C2O)n1` (stereo unspecified) came in with a TGI of 6320 µM.
For `CCCN(CCS(C)(=O)=O)Cc1ccc(-c2ccc3ncnc(Nc4ccc(OCc5cccc(F)c5)c(Cl)c4)c3c2)o1`, the GI50 was 24.9 µM and the TGI was over 25 µM.
On the same counts, the results for `CC(C)C[C@H](NC(=O)CNC(=O)c1cc(Cl)ccc1Cl)B1OC(=O)CC(CC(=O)O)(C(=O)O)O1` (stereo partly specified) are 0.0193 µM and 0.0438 µM.
Take `OCC12C3C4C5C3C1C5C42` (stereo unspecified): the TGI is over 100 µM.
With `CCCCCCCCCCCCCCCCCC[n+]1ccc2c(C)c3c(c(C)c2c1)c1cc(O)ccc1n3CC`, the GI50 was 1.57 µM and the TGI stood at 3.89 µM.
For `CCc1ccc2c(c1)N(CCO)C1=C(C(=O)OC1)C2c1cccc(Br)c1` (stereo unspecified) the same measures were 0.216 µM and 1.82 µM.
For `O=c1[nH]c(=O)n(C2CC(O)C(COP(=O)(OCc3ccc([N+](=O)[O-])o3)N(CCCCCl)CC(O)CO)O2)cc1F` (stereo unspecified) the same measures were 0.0243 µM and 3.6 µM.
On the same counts, the results for `CC(C)NCCCn1c(Sc2cc3c(cc2I)OCO3)nc2c(N)ncnc21` are 0.753 µM and 48.8 µM.
Consider `CN1C(=O)N(C)C2C1NN=c1s/c(=C\c3ccc(C(F)(F)F)cc3)c(=O)n12` (stereo unspecified), for which the GI50 is 1.73 µM and the TGI is 6.77 µM.
On the same counts, the results for `N#Cc1c(N2CCOCC2)nc(=S)[nH]c1-c1ccco1` are 12.9 µM and over 100 µM.
As for `C[C@@H]1CN(Cc2ccc(F)cc2)[C@@H](C)CN1C(=O)c1cc2c(C(=O)C(=O)N(C)C)cn(C)c2cc1Cl`, the GI50 was 12.3 µM and the TGI was 27.6 µM.

For the next test, the system named is LOX IMVI melanoma. Briefly: inhibition of tumour cell growth, NCI panel, 48 h.
Consider `Nc1nc(OCc2ccccc2)c2[nH]cnc2n1`, for which the GI50 was 34 µM and 26.2 µM; the TGI is 273 µM and 115 µM.
`Fc1ccc(/C=N/n2c(-c3ccc(F)c(Cl)c3)nn(CNc3ccccc3C(F)(F)F)c2=S)cc1`: the GI50 was 54.9 µM and the TGI was over 100 µM.
On the same counts, the results for `CN[C@@H](C)C(=O)N[C@H](C(=O)N1CCC[C@H]1C(=O)Nc1sc(-c2ncco2)nc1-c1ccccc1)C1CCCCC1` are 18.5 µM and 34.8 µM.
On the same counts, the results for `CC1=C2[C@@H](CC1)[C@]1(C)O[C@@](c3ccccc3)(C[C@H]1OC(=O)CO)[C@H]2OC(=O)/C=C/c1ccccc1` are 15.9 µM and 32.3 µM.
With `NC(=O)c1csc(C2OC(CO)C(O)C2O)n1` (stereo unspecified), the GI50 is over 53.2 µM and the TGI was 7900 µM.
For `CCCN(CCS(C)(=O)=O)Cc1ccc(-c2ccc3ncnc(Nc4ccc(OCc5cccc(F)c5)c(Cl)c4)c3c2)o1` the same measures were over 25 µM and over 25 µM.
For `CC(C)C[C@H](NC(=O)CNC(=O)c1cc(Cl)ccc1Cl)B1OC(=O)CC(CC(=O)O)(C(=O)O)O1` (stereo partly specified) the same measures were 0.0325 µM and 0.12 µM.
On to `OCC12C3C4C5C3C1C5C42` (stereo unspecified), for which the TGI is over 100 µM.
